# Data from US20130053372A1, “5-HT RECEPTOR MODULATORS” (Cambridge Enterprise Limited, priority 2010, published 2013).
# Counter-ions that a name gives are not always drawn.
# Tests used:
# [1] = system: chronically hypoxic murine model of pulmonary arterial hypertension (PAH); experiment: Effect on development of hypoxia-induced pulmonary hypertension (haemodynamics, right ventricular hypertrophy); format: in vivo, Mice (C57B/6J); conditions: mice
# Description: Protocol for the Determination of the Effect on the Development of Hypoxia-Induced Pulmonary Hypertension.
# Mice (C57B/6J, male, 2 months) were exposed to 14 days of hypobaric hypoxia (equivalent to 10% O2) or normoxia, as described in MacLean, M. R. et al. Circulation 2008, 117, 2928-2937 and MacLean, M. R. et al. Circulation 2004,109, 2150-2155. Mice were dosed either with vehicle (dH2O) or 82 (15 mg/kg/day) for 14 days. Haemodynamic Measurements: Heart rate, right ventricular pressure and systemic arterial pressure were measured and analysed as described in MacLean, M. R. et al. Circulation 2008, 117, 2928-2937 and MacLean, M. R. et al. Circulation 2004,109, 2150-2155. Briefly, right ventricular pressure was measured via transdiaphragmatic right heart catheterisation and systemic arterial pressure was measured via cannulation of the left common carotid artery. Lung Histology: Sagittal sections of lung were elastica-Van Gieson stained and microscopically assessed for the muscularisation of pulmonary arteries (<80 μm external diameter) in a blinded fashion as described in MacLean, M. R. et al. Circulation 2008, 117, 2928-2937 and MacLean, M. R. et al. Circulation 2004,109, 2150-2155. Remodelled arteries were confirmed by the presence of a double elastic laminae.
# (§1) Lung sections from 5 mice for each group were studied. Approximately 150 arteries from each lung section (˜750 arteries in total for each group) were assessed. Right Ventricular Hypertrophy: Right ventricular hypertrophy (RVH) was assessed by weight measurement of the right ventricular free wall (RV) and left ventricle plus septum (LV+S). The ratio expressed is RV/LV+S. RVH measurements from 6 to 8 mice for each group were assessed. Myography: Small pulmonary arteries (PAs) of ˜350 μm internal diameter (i.d.) were set up on wire myographs as described in MacLean M. R. et al. J Pharmacol Exp Ther. 2005, 313, 539-548. Briefly, PAs from normoxic mice were set up at tensions equivalent to their mean in vivo right ventricular pressure (RVP) (12-15 mmHg), whereas PAs from hypoxic mice were set up at tensions equivalent to the elevated in vivo mean pressures observed after exposure to hypoxia (25-30 mmHg). After a 45-min equilibration period, the response to 50 mM KCl was determined. Cumulative response curves were constructed in the presence and absence of the antagonist which was allowed a 45-min equilibrium period before constructing the curves.
# The effects of 82 on a chronically hypoxic murine model of pulmonary arterial hypertension (PAH) were assessed. Four small groups of n=3 or 4 were used. The results are illustrated in FIGS. 13-17 (see also description of figures, above).
# rat r5-HT1B receptors = target: T1, rat r5-HT1B receptors (Rattus norvegicus, UniProt P28564); experiment: Binding affinity at rat r5-HT1B receptors, rat cerebral cortex membrane binding (RBA); conditions: value in parentheses; monohydrochloride salt
# T1 construct: from tissue
# Description: Binding Protocol for Determination of Affinity at rat r5-HT 1B Receptors (RBA)
# This binding affinity protocol was performed according to standard conditions disclosed in Eur. J. Pharmacol. 1985, 118, 1-12.
# [2] = system: intralobar pulmonary arteries from hypoxic mice; experiment: Myography of pulmonary arteries: vasoreactivity to 5-HT; parameters: species or system Mice (C57B/6J); conditions: 15 mg/kg/day
# Description: as §1
# T1 sequence (P28564 whole entry): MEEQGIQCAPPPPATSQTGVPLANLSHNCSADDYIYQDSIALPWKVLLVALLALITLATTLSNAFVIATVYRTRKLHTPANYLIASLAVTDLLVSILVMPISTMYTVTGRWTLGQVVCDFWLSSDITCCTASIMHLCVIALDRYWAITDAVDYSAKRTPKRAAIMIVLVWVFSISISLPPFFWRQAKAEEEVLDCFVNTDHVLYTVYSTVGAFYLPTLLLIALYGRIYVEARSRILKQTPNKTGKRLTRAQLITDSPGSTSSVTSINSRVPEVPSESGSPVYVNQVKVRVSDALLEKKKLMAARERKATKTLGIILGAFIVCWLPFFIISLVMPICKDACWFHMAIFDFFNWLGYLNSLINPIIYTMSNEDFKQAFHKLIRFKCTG
structure (smiles),measurement,setting,value
"CN1CCN(c2nc(N3CCN(c4ccccc4)C3=O)cc3ccoc23)CC1 [Example 82, 1-(7-(4-Methylpiperazin-1-yl)furo[2,3-c]pyridin-5-yl)-3-phenylimidazolidin-2-one hydrochloride]",effect on heart rate (HR),[1]; 15 mg/kg/day,no significant effect
same,effect on mean systemic arterial pressure (mSAP),[1]; 15 mg/kg/day,no significant effect
same,hypoxia-induced increases in systolic right ventricular pressure (sRVP),"[1]; 15 mg/kg/day for 14 days, hypobaric hypoxia",significantly attenuated
same,hypoxia-induced right ventricular hypertrophy (RVH),"[1]; 15 mg/kg/day for 14 days, hypobaric hypoxia, RV/LV+S",significantly attenuated
same,IC50,rat r5-HT1B receptors,110 nM
same,effect on the increase in contractility to 5HT in intralobar pulmonary arteries from hypoxic mice,[2],no effect
